Read-outs that look alike come from different tables or passages of the source.

The conditions of the series: initial 0.220 %. How it is done:
The samples were tested for stability after having been stored at 25° C. for three months.

For the molecule `C/C=C/C=C/C(=O)O` [Sorbic Acid, sorbic acid], the “Sorbic Acid Concentration (%) After 3 months storage at 25 C.” value (pH = 5.5) is 0.13%, the “Sorbic Acid Concentration (%) After 3 months storage at 25 C.” value (pH = 6.0) came to 0.21% and the “Sorbic Acid Concentration (%) After 3 months storage at 25 C.” value (pH = 6.5) was 0.21%.

For the origin of these results see US20090286718A1, “Stable Aqueous Cyclosporin Compositions” (SIRION THERAPEUTICS, INC., priority 2008, published 2009).
